# Reference: patent publication US20050048508A1, “Trehalose receptor and method for detecting trehalose with the same” (KABUSHIKI KAISHA HAYASHIBARA SEIBUTSU KAGAKU KENKYUJO, priority 2002, published 2005)
# Biological target: T1, T1R1 with G protein α-subunits (α15 and α16/Z chimeric protein) (Mus musculus, UniProt Q99PG6)
# T1 construct: expressed in transfected cells; host or cells: 293 cells, RCB 1637 (human embryonic kidney)
# T1 sequence (Q99PG6 20-842 L120P/N244D/D281A/N309Y/P311T/S314P/H418Y): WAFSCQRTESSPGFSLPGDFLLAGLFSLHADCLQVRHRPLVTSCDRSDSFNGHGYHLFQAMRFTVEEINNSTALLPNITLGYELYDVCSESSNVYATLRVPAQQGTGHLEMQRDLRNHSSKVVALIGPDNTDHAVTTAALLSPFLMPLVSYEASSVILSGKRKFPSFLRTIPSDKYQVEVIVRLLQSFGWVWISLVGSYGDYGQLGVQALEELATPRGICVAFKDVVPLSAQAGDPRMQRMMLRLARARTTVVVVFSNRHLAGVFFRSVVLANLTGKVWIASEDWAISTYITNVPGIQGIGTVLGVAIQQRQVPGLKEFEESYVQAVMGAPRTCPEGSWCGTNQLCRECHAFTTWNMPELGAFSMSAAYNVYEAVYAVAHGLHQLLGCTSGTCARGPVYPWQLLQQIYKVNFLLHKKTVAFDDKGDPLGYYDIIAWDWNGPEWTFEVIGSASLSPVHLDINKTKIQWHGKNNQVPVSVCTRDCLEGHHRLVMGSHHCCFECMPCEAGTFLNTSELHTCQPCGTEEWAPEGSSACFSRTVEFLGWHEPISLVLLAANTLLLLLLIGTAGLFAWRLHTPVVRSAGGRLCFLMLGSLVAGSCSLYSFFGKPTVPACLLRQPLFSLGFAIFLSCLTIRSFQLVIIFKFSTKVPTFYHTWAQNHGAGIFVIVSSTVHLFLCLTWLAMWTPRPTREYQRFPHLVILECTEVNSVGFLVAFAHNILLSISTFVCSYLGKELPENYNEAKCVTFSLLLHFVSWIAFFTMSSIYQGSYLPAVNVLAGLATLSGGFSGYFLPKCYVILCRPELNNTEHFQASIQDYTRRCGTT
# Test: Intracellular calcium ion assay, 293 cells coexpressing G protein α-subunits and T1R1
# Format: cell-based
# Conditions: 293 cells: T1R1 + G protein α-subunits; 0.67 ml of 1 M saccharide solution added to 2 ml cell suspension; FLUO-4 AM
# Description: The coexpression vector for the G protein α-subunit α15 and the G protein α16/Z chimeric protein (hereinafter designated as “G protein α-subunits”) obtained in Example 1-3 was gene transferred to 293 cells, RCB 1637, a human embryonic kidney cell line, available from the Riken Bioresource Center, Ibaraki, Japan, by conventional lipofection. The gene transferred cells were suspended in Dulbecco's Modified Eagle's Medium (D-MEM) supplemented with 1 mg/L of “PUROMYCIN”, a trade mane of puromycin commercialized by Edge Biosystems, MD, USA, and 10% (v/v) of fetal calf serum to give a cell density of 2×10^6 cells/ml and cultured in a plastic petri dish for cell culture. […]
# The captioned reactivity test was conducted according to a conventional intracellular calcium ion assay: 293 Cells prepared in Example 3, capable of coexpressing the G protein α-subunits and the sweet taste receptor(s), were cultured in a plastic petri dish for cell culture until reaching its confluent phase. […] Two milliliters of the resultant cell suspension was injected into a glass cuvette, commercialized by Hitachi, Ltd., Tokyo, Japan, and analyzed on “HITACHI 650-40”, a fluorescence spectrophotometer commercialized by Hitachi, Ltd., Tokyo, Japan. […]
row,SMILES,Influx of calcium ion
1,OC[C@H]1O[C@H](O[C@H]2O[C@H](CO)[C@@H](O)[C@H](O)[C@H]2O)[C@H](O)[C@@H](O)[C@@H]1O [Trehalose],Negative
2,"OC[C@H]1O[C@@](CO)(O[C@H]2O[C@H](CO)[C@@H](O)[C@H](O)[C@H]2O)[C@@H](O)[C@@H]1O [Sucrose, reference compound]",Negative
